Results on six compounds are retold here after ChEMBL document CHEMBL4017472, “New modified 2-aminobenzimidazole nucleosides: Synthesis and evaluation of their activity against herpes simplex virus type 1” (Bioorg Med Chem Lett, 2017).

In one data set the test system is Human alphaherpesvirus 1. The data set can be described thus: Antiviral activity against foscarnet-resistant HSV-1 F+ infected in African green monkey Vero E6 cells assessed as reduction in virus-induced cytopathic effect. Type of data set: functional. Particulars: Human alphaherpesvirus 1, F+, Vero C1008.
On to `Nc1nc2c(ncn2COCCO)c(=O)[nH]1` [ACYCLOVIR], for which the IC50 (commonly the concentration needed to halve the response being measured) came to 3.5 µM and the IC95 – broadly, the point of the concentration-response curve where the effect stands at 95% – is 13.9 µM.

In the case of `O.O.O.O.O.O.O=C([O-])P(=O)([O-])[O-].[Na+].[Na+].[Na+]`, the IC50 worked out at 833 µM and the IC95 was > 833 µM.

On to `Nc1ccn(C[C@@H](CO)OCP(=O)(O)O)c(=O)n1.O.O` [CIDOFOVIR], for which the IC50 was determined as 27.9 µM and the IC95 came out at 448 µM.

On to `NC(=O)c1ncn([C@@H]2O[C@H](CO)[C@@H](O)[C@H]2O)n1` [RIBAVIRIN], for which the IC95 is > 4100 µM.

In another data set the test system is Human alphaherpesvirus 1. The data set can be described thus: Antiviral activity against HSV-1 L2/Rp-ACV/2 infected in African green monkey Vero E6 cells assessed as reduction in virus-induced cytopathic effect. It is filed as functional. Particulars: Human alphaherpesvirus 1, L2/Rp-ACV/2, Vero C1008. On the technique in general: Protection from cytopathic effect is a common read-out in antiviral testing.
Regarding `Nc1nc2c(ncn2COCCO)c(=O)[nH]1` [ACYCLOVIR], the IC50 turned out to be 27.8 µM and the IC95 was determined as 111 µM.

Turning to `O.O.O.O.O.O.O=C([O-])P(=O)([O-])[O-].[Na+].[Na+].[Na+]`, the IC50 was 52 µM and the IC95 worked out at 104 µM.

As to `Nc1ccn(C[C@@H](CO)OCP(=O)(O)O)c(=O)n1.O.O` [CIDOFOVIR], the IC50 was 1.8 µM and the IC95 amounted to 27.9 µM.

Consider `NC(=O)c1ncn([C@@H]2O[C@H](CO)[C@@H](O)[C@H]2O)n1` [RIBAVIRIN], for which the IC50 came to 1020 µM and the IC95 is > 4100 µM.

A further data set has as its system Human alphaherpesvirus 1. The data set can be described thus: Antiviral activity against HSV1 L2 infected in African green monkey Vero E6 cells assessed as reduction in virus-induced cytopathic effect. It is filed as functional. Particulars: Human alphaherpesvirus 1, L2, Vero C1008.
For `Nc1nc2c(ncn2COCCO)c(=O)[nH]1` [ACYCLOVIR], the IC50 was determined as 1.73 µM and the IC95 was 6.9 µM.

Regarding `O.O.O.O.O.O.O=C([O-])P(=O)([O-])[O-].[Na+].[Na+].[Na+]`, the IC50 was 104 µM and the IC95 came to 208 µM.

As to `Nc1nc2cc(F)c(F)cc2n1[C@H]1C[C@H](O)[C@@H](CO)O1`, the IC50 is 876 µM and the IC95 came to 3510 µM.

Turning to `Nc1ccn(C[C@@H](CO)OCP(=O)(O)O)c(=O)n1.O.O` [CIDOFOVIR], the concentration for half-maximal inhibition (IC50) came out at 14 µM and the IC95 was determined as 55.9 µM.

In the case of `NC(=O)c1ncn([C@@H]2O[C@H](CO)[C@@H](O)[C@H]2O)n1` [RIBAVIRIN], the IC50 came out at 512 µM and the IC95 came out at 2050 µM.

In the case of `CC(C)Nc1nc2cc(Cl)c(Cl)cc2n1[C@H]1O[C@@H](CO)[C@H](O)[C@@H]1O` [MARIBAVIR], the IC50 came to 665 µM and the IC95 was > 665 µM.

For a further data set, the system named is Human alphaherpesvirus 1. Nature of the data set: Antiviral activity against acyclovir and foscarnet-resistant HSV-1 L2 infected in African green monkey Vero E6 cells assessed as reduction in virus-induced cytopathic effect. It is filed as functional. Conditions: Human alphaherpesvirus 1, L2, Vero C1008.
As to `Nc1nc2c(ncn2COCCO)c(=O)[nH]1` [ACYCLOVIR], the IC50 was > 444 µM and the concentration for an effect of 95% (IC95) is > 444 µM.

Consider `O.O.O.O.O.O.O=C([O-])P(=O)([O-])[O-].[Na+].[Na+].[Na+]`, for which the IC50 was determined as 417 µM and the IC95 is > 833 µM.

With `Nc1ccn(C[C@@H](CO)OCP(=O)(O)O)c(=O)n1.O.O` [CIDOFOVIR], the IC50 was determined as 7 µM and the IC95 stood at 27.9 µM.

Take `NC(=O)c1ncn([C@@H]2O[C@H](CO)[C@@H](O)[C@H]2O)n1` [RIBAVIRIN]: the IC50 came out at 1020 µM and the IC95 is > 4100 µM.

For the next data set, the system named is Human alphaherpesvirus 1. Nature of the data set: Antiviral activity against acyclovir and cidofovir-resistant HSV-1 L2 infected in African green monkey Vero E6 cells assessed as reduction in virus-induced cytopathic effect. It is filed as functional. Particulars: Human alphaherpesvirus 1, L2, Vero C1008.
In the case of `Nc1nc2c(ncn2COCCO)c(=O)[nH]1` [ACYCLOVIR], the IC50 was 17.3 µM and the IC95 was found to be 139 µM.

As for `O.O.O.O.O.O.O=C([O-])P(=O)([O-])[O-].[Na+].[Na+].[Na+]`, the IC50 was determined as 104 µM and the IC95 was 208 µM.

Turning to `Nc1ccn(C[C@@H](CO)OCP(=O)(O)O)c(=O)n1.O.O` [CIDOFOVIR], the IC50 was 112 µM and the IC95 amounted to 895 µM.

As for `NC(=O)c1ncn([C@@H]2O[C@H](CO)[C@@H](O)[C@H]2O)n1` [RIBAVIRIN], the IC50 worked out at 1020 µM and the IC95 was > 4100 µM.

System in another data set: not listed separately
The data set can be described thus: Selectivity index, ratio of MCC for African green monkey Vero E6 cells to IC50 for HSV-1 L2/Rp-ACV/2 infected in African green monkey Vero E6 cells. Details: species or system Vero C1008.
Conditions: not given
For the compound `Nc1nc2c(ncn2COCCO)c(=O)[nH]1` [ACYCLOVIR], the “Selectivity Index” value worked out at 16.

Turning to `O.O.O.O.O.O.O=C([O-])P(=O)([O-])[O-].[Na+].[Na+].[Na+]`, the “Selectivity Index” value is 16.

Take `Nc1ccn(C[C@@H](CO)OCP(=O)(O)O)c(=O)n1.O.O` [CIDOFOVIR]: the “Selectivity Index” value is >204.

Regarding `NC(=O)c1ncn([C@@H]2O[C@H](CO)[C@@H](O)[C@H]2O)n1` [RIBAVIRIN], the “Selectivity Index” value is given as >4.

System in the next data set: not listed separately
The data set can be described thus: Selectivity index, ratio of MCC for African green monkey Vero E6 cells to IC50 for acyclovir-resistant HSV-1 L2 infected in African green monkey Vero E6 cells. On the set-up: species or system Vero C1008.
Conditions: not given
As to `Nc1nc2c(ncn2COCCO)c(=O)[nH]1` [ACYCLOVIR], the “Selectivity Index” value is on record as >1.

Regarding `O.O.O.O.O.O.O=C([O-])P(=O)([O-])[O-].[Na+].[Na+].[Na+]`, the “Selectivity Index” value was 8.

Regarding `Nc1ccn(C[C@@H](CO)OCP(=O)(O)O)c(=O)n1.O.O` [CIDOFOVIR], the “Selectivity Index” value is >26.

Regarding `NC(=O)c1ncn([C@@H]2O[C@H](CO)[C@@H](O)[C@H]2O)n1` [RIBAVIRIN], the “Selectivity Index” value is listed as >4.

System in another data set: not listed separately
The data set can be described thus: Selectivity index, ratio of MCC for African green monkey Vero E6 cells to IC50 for HSV-1 F+ infected in African green monkey Vero E6 cells. Details: species or system Vero C1008.
Conditions: not given
For the compound `Nc1nc2c(ncn2COCCO)c(=O)[nH]1` [ACYCLOVIR], the “Selectivity Index” value is reported as >128.

As for `O.O.O.O.O.O.O=C([O-])P(=O)([O-])[O-].[Na+].[Na+].[Na+]`, the “Selectivity Index” value is 1.

Regarding `Nc1ccn(C[C@@H](CO)OCP(=O)(O)O)c(=O)n1.O.O` [CIDOFOVIR], the “Selectivity Index” value is recorded as >13.

Turning to `NC(=O)c1ncn([C@@H]2O[C@H](CO)[C@@H](O)[C@H]2O)n1` [RIBAVIRIN], the “Selectivity Index” value was >4.

The next data set has as its system Human alphaherpesvirus 1. Nature of the data set: Antiviral activity against acyclovir-resistant HSV-1 L2 infected in African green monkey Vero E6 cells assessed as reduction in virus-induced cytopathic effect. Conditions: Human alphaherpesvirus 1, L2, Vero C1008. It is filed as functional.
Turning to `Nc1nc2c(ncn2COCCO)c(=O)[nH]1` [ACYCLOVIR], the IC50 is > 444 µM and the IC95 is > 444 µM.

Turning to `O.O.O.O.O.O.O=C([O-])P(=O)([O-])[O-].[Na+].[Na+].[Na+]`, the IC50 amounted to 104 µM and the IC95 came out at 208 µM.

Regarding `Nc1ccn(C[C@@H](CO)OCP(=O)(O)O)c(=O)n1.O.O` [CIDOFOVIR], the IC50 came to 14 µM and the IC95 worked out at 55.9 µM.

With `NC(=O)c1ncn([C@@H]2O[C@H](CO)[C@@H](O)[C@H]2O)n1` [RIBAVIRIN], the IC50 was determined as 1020 µM and the IC95 was > 4100 µM.

System in a further data set: not listed separately
Nature of the data set: Selectivity index, ratio of MCC for African green monkey Vero E6 cells to IC50 for acyclovir and cidofovir-resistant HSV-1 L2 infected in African green monkey Vero E6 cells.
Conditions: not given
Details: species or system Vero C1008.
As to `Nc1nc2c(ncn2COCCO)c(=O)[nH]1` [ACYCLOVIR], the “Selectivity Index” value is >26.

For `O.O.O.O.O.O.O=C([O-])P(=O)([O-])[O-].[Na+].[Na+].[Na+]`, the “Selectivity Index” value came out at 8.

`Nc1ccn(C[C@@H](CO)OCP(=O)(O)O)c(=O)n1.O.O` [CIDOFOVIR]: the “Selectivity Index” value is recorded as >6.4.

Regarding `NC(=O)c1ncn([C@@H]2O[C@H](CO)[C@@H](O)[C@H]2O)n1` [RIBAVIRIN], the “Selectivity Index” value is on record as >4.

System in another data set: not listed separately
Nature of the data set: Selectivity index, ratio of MCC for African green monkey Vero E6 cells to IC50 for acyclovir and foscarnet-resistant HSV-1 L2 infected in African green monkey Vero E6 cells. Details: species or system Vero C1008.
Conditions: not given
`Nc1nc2c(ncn2COCCO)c(=O)[nH]1` [ACYCLOVIR]: the “Selectivity Index” value is >1.

As for `O.O.O.O.O.O.O=C([O-])P(=O)([O-])[O-].[Na+].[Na+].[Na+]`, the “Selectivity Index” value amounted to 2.

Turning to `Nc1ccn(C[C@@H](CO)OCP(=O)(O)O)c(=O)n1.O.O` [CIDOFOVIR], the “Selectivity Index” value is listed as >51.

Consider `NC(=O)c1ncn([C@@H]2O[C@H](CO)[C@@H](O)[C@H]2O)n1` [RIBAVIRIN], for which the “Selectivity Index” value is >4.

System in a further data set: not listed separately
Nature of the data set: Cytotoxicity against African green monkey Vero E6 cells measured after 3 days by trypan blue assay. Conditions: chlorocebus sabaeus. It is filed as cell-based, Vero C1008.
`Nc1nc2c(ncn2COCCO)c(=O)[nH]1` [ACYCLOVIR]: the MCC at 72 h is > 444 µM.

As to `O.O.O.O.O.O.O=C([O-])P(=O)([O-])[O-].[Na+].[Na+].[Na+]`, the MCC at 72 h is 833 µM.

Take `Nc1nc2cc(F)c(F)cc2n1[C@H]1C[C@H](O)[C@@H](CO)O1`: the MCC at 72 h is > 3500 µM.

Take `Nc1ccn(C[C@@H](CO)OCP(=O)(O)O)c(=O)n1.O.O` [CIDOFOVIR]: the MCC at 72 h is > 358 µM.

In the case of `NC(=O)c1ncn([C@@H]2O[C@H](CO)[C@@H](O)[C@H]2O)n1` [RIBAVIRIN], the MCC at 72 h is > 4100 µM.

The compound `CC(C)Nc1nc2cc(Cl)c(Cl)cc2n1[C@H]1O[C@@H](CO)[C@H](O)[C@@H]1O` [MARIBAVIR] displayed an MCC at 72 h of 665 µM.

System in a further data set: not listed separately
Nature of the data set: Selectivity index, ratio of MCC for African green monkey Vero E6 cells to IC50 for HSV-1 L2 infected in African green monkey Vero E6 cells. On the set-up: species or system Vero C1008.
Conditions: not given
Turning to `Nc1nc2c(ncn2COCCO)c(=O)[nH]1` [ACYCLOVIR], the “Selectivity Index” value is recorded as >256.

Turning to `O.O.O.O.O.O.O=C([O-])P(=O)([O-])[O-].[Na+].[Na+].[Na+]`, the “Selectivity Index” value was determined as 8.

For the compound `Nc1nc2cc(F)c(F)cc2n1[C@H]1C[C@H](O)[C@@H](CO)O1`, the “Selectivity Index” value is >4.

As to `Nc1ccn(C[C@@H](CO)OCP(=O)(O)O)c(=O)n1.O.O` [CIDOFOVIR], the “Selectivity Index” value is recorded as >26.

As to `NC(=O)c1ncn([C@@H]2O[C@H](CO)[C@@H](O)[C@H]2O)n1` [RIBAVIRIN], the “Selectivity Index” value is on record as >8.

Consider `CC(C)Nc1nc2cc(Cl)c(Cl)cc2n1[C@H]1O[C@@H](CO)[C@H](O)[C@@H]1O` [MARIBAVIR], for which the “Selectivity Index” value turned out to be 1.
